Broadly, the IC50 is the concentration needed to halve the response being measured. The Papp is the rate of passage across a membrane or cell layer, normalised by area and donor concentration. Low readings indicate slow passage, high ones fast passage.

Results on 13 compounds are retold here after patent publication US9956293B2, “Targeted therapeutics” (Madrigal Pharmaceuticals, Inc., priority 2014, dated 2018).

Series [1] concerns HER2. Put plainly: HER2 degradation assay with BT-474 cell line (Example 12, FACS). The format is cell-based. The conditions noted are these: Homo sapiens.
In series [2] the test system is HER2. Description: HER2 degradation in BT-474 cells (Example 3, Western blot / in-cell imaging). The format is cell-based, human. The note with it: Homo sapiens; BT-474 cells; read-out: HER2 (IC50). On the technique in general: In western blotting, separated proteins are transferred to a membrane and probed.
Method: BT-474 cells are plated in the interior 60 wells of a 96 well black clear bottom plate (20,000 cells/well) in DMEM medium, with DMEM media in the surrounding 36 wells, and incubated at 37° C. with 5% CO2 overnight. On the second day, concentration response curve source plates are produced (10 point, 3-fold dilution of compounds in DMSO) followed by a 1:30 dilution in an intermediate dilution plate containing DMEM. Compound is transferred from the intermediate plate to the cell plate at a dilution of 1:10.
Cells are then fixed in 4% phosphate-buffered paraformaldehyde for 30 minutes at room temperature and then permeabilized by washing five times with 0.1% Triton X-100 in PBS for 5 minutes at room temperature on a shaker. […] Cells are washed 5 times with 0.1% Tween-20 in PBS for 5 minutes at room temperature on a shaker and imaged on a LI-COR Odyssey imaging station. The raw data is normalized to DRAQ5 and the HER2 EC50 is calculated using XLfit™.
A short description of series [3]: Artificial membrane permeability assay (PAMPA) (Example 36). The format is in vitro ADME. The note with it: incubation 5 h, the 55th table. (In PAMPA a lipid-coated filter parts donor from acceptor wells.)
Method: In order to test the ability SDC-TRAP molecules of the invention to enter cells, an artificial membrane permeability assay (“PAMPA”) was used. […] LC/MS was used in conjunction with PAMPA assays to determine the ability of the SDC-TRAP molecules of the invention to permeate cells.
Pre-coated PAMPA plates were warmed to room temperature for at least 30 minutes prior to adding assay components.
Stock solutions were prepared with the SDC-TRAP molecules to be tested. In order to make a working solution, either 50 μL of 100 μM Stock in DMSO+950 μL of PBS or 50 μL of 200 μM stock was added to 96 deep well plate, resulting in a 5 μM final concentration or a 10 μM final concentration, respectively. 300 μL of the working solution containing each compound to be tested was added to the appropriate well of a donor PAMPA plate. 200 μL of PBS was added into the corresponding wells of an acceptor PAMPA plates.
The acceptor plate was lowered onto the donor plate and allowed to incubate for five hours. After five hours, a 50 μL aliquot was removed from each well of each plate and added into a new 96 deep-well plate.
100 μL of methanol containing an internal standard was added to each aliquot and analyzed by LC/MS. The internal standard was 150 ng/ml SDC-TRAP-0002.
In order to calculate the permeability for each SDC-TRAP molecule and the control molecules, the following formula was used:
Where [4] appears, read: BT-474, SDC-TRAPs of the 43rd table.
[5] abbreviates: BT-474, SDC-TRAPs of the 41st table.

In the case of `CC(C)c1cc(-c2nnc(O)n2-c2ccc3c(ccn3CCOCCN(C)C(=O)CCC(=O)Nc3cccc4c3CN(C3CCC(=O)NC3=O)C4=O)c2)c(O)cc1O` (stereo not shown) [SDC-TRAP-0033, N1-(2-(2-(5-(3-(2,4-dihydroxy-5-isopropylphenyl)-5-hydroxy-4H-1,2,4-triazol-4-yl)-1H-indol-1-yl)ethoxy)ethyl)-N4-(2-(2,6-dioxopiperidin-3-yl)-1-oxoisoindolin-4-yl)-N1-methylsuccinamide], the IC50 in series [1] (BT-474 cells) and in series [2] was more than 5 µM each time.

With `CC(C)c1cc(-c2nnc(O)n2-c2ccc3c(ccn3CCNC(=O)CCCC[C@@H]3SCC4NC(=O)NC43)c2)c(O)cc1O` (stereo in doubt) [SDC-TRAP-0233, N-(2-(5-(3-(2,4-dihydroxy-5-isopropylphenyl)-5-hydroxy-4H-1,2,4-triazol-4-yl)-1H-indol-1-yl)ethyl)-5-((3 aS,4S,6aR)-2-oxohexahydro-1H-thieno[3,4-d]imidazol-4-yl)pentanamide], the Papp at 5 h in series [3] turned out to be 0.021 ×10⁻⁶ cm/s. On to `CCc1c2c(nc3ccc(OCC(=O)N(C)CCn4ccc5cc(-n6c(O)nnc6-c6cc(C(C)C)c(O)cc6O)ccc54)cc13)-c1cc3c(c(=O)n1C2)COC(=O)C3(O)CC` (stereo not shown) [SDC-TRAP-0027, 2-((4,11-diethyl-4-hydroxy-3,14-dioxo-3,4,12,14-tetrahydro-1H-pyrano[3′,4′:6,7]indolizino[1,2-b]quinolin-9-yl)oxy)-N-(2-(5-(3-(2,4-dihydroxy-5-isopropylphenyl)-5-hydroxy-4H-1,2,4-triazol-4-yl)-1H-indol-1-yl)ethyl)-N-methylacetamide], for which the IC50 in series [1] (setting [4]) and in series [2] was more than 5 µM each time. As for `CC(C)c1cc(-c2nnc(O)n2-c2ccc3c(ccn3CCOCCNC(=O)CCCC(=O)Nc3cccc4c3CN(C3CCC(=O)NC3=O)C4=O)c2)c(O)cc1O` (stereo not shown) [SDC-TRAP-0015, N1-(2-(2-(5-(3-(2,4-dihydroxy-5-isopropylphenyl)-5-hydroxy-4H-1,2,4-triazol-4-yl)-1H-indol-1-yl)ethoxy)ethyl)-N5-(2-(2,6-dixopiperidin-3-yl)-1-oxoisoindolin-4-yl)glutaramide], the IC50 in series [1] (BT-474 cells) and in series [2] was 2.35 µM in each case.

For `CC(C)c1cc(-c2nnc(O)n2-c2ccc3c(ccn3CCOCCNC(=O)c3ccc(CCc4c[nH]c5nc(N)[nH]c(=O)c45)cc3)c2)c(O)cc1O` [SDC-TRAP-0020, 4-(2-(2-amino-4-oxo-4,7-dihydro-3H-pyrrolo[2,3-d]pyrimidin-5-yl)ethyl)-N-(2-(2-(5-(3-(2,4-dihydroxy-5-isopropylphenyl)-5-hydroxy-4H-1,2,4-triazol-4-yl)-1H-indol-1-yl)ethoxy)ethyl)benzamide], the IC50 in series [1] (setting [5]) and in series [2] was more than 5 µM in each case. On to `CC(C)c1cc(-c2nnc(O)n2-c2ccc3c(ccn3CCN(C)C(=O)CCCC(=O)Nc3cccc4c3CN(C3CCC(=O)NC3=O)C4=O)c2)c(O)cc1O` (stereo not shown) [SDC-TRAP-0018, N1-(2-(5-(3-(2,4-dihydroxy-5-isopropylphenyl)-5-hydroxy-4H-1,2,4-triazol-4-yl)-1H-indol-1-yl)ethyl)-N5-(2-(2,6-dioxopiperidin-3-yl)-1-oxoisoindolin-4-yl)-N1-methylglutaramide], for which the IC50 was 8.21 µM in series [1] (BT-474 cells) and more than 5 µM in series [2]. On to `CCc1c2c(nc3ccc(OCC(=O)NCCn4ccc5cc(-n6c(O)nnc6-c6cc(C(C)C)c(O)cc6O)ccc54)cc13)-c1cc3c(c(=O)n1C2)COC(=O)C3(O)CC` (stereo not shown) [SDC-TRAP-0023, 2-((4,11-diethyl-4-hydroxy-3,14-dioxo-3,4,12,14-tetrahydro-1H-pyrano[3′,4′:6,7]indolizino[1,2b]quinolin-9-yl)oxy)-N-(2-(5-(3-(2,4-dihydroxy-5-isopropylphenyl)-5-hydroxy-4H-1,2,4-triazol-4-yl)-1H-indol-1-yl)ethyl)acetamide], for which the IC50 in series [1] (setting [4]) and in series [2] was 4.3 µM each time. Take `CC(C)c1cc(-c2nnc(O)n2-c2ccc3c(ccn3CCN(C)C(=O)c3ccc(CCc4c[nH]c5nc(N)[nH]c(=O)c45)cc3)c2)c(O)cc1O` [SDC-TRAP-0019, 4-(2-(2-amino-4-oxo-4,7-dihydro-3H-pyrrolo[2,3-d]pyrimidin-5-yl)ethyl)-N-(2-(5-(3-(2,4-dihydroxy-5-isopropylphenyl)-5-hydroxy-4H-1,2,4-triazol-4-yl)-1H-indol-1-yl)ethyl)-N-methylbenzamide]: the half-maximal inhibitory concentration (IC50) in series [1] (setting [5]) and in series [2] was 4.42 µM throughout. Consider `CC(C)c1cc(-c2nnc(O)n2-c2ccc3c(ccn3CCC(=O)Nc3cccc4c3CN(C3CCC(=O)NC3=O)C4=O)c2)c(O)cc1O` (stereo not shown) [SDC-TRAP-0017, 3-(5-(3-(2,4-dihydroxy-5-isopropylphenyl)-5-hydroxy-4H-1,2,4-triazol-4-yl)-1H-indol-1-yl)-N-(2-(2,6-dioxopiperidin-3-yl)-1-oxoisoindolin-4-yl)propanamide], for which the results for the IC50 in series [1] (BT-474 cells) and in series [2] were more than 10 µM and more than 5 µM, respectively. For `CC(C)c1cc(-c2nnc(O)n2-c2ccc3c(ccn3CCN(C)C(=O)NCC(=O)Nc3cccc4c3CN(C3CCC(=O)NC3=O)C4=O)c2)c(O)cc1O` (stereo not shown) [SDC-TRAP-0021, 2-(3-(2-(5-(3-(2,4-dihydroxy-5-isopropylphenyl)-5-hydroxy-4H-1,2,4-triazol-4-yl)-1H-indol-1-yl)ethyl)-3-methylureido)-N-(2-(2,6-dioxopiperidin-3-yl)-1-oxoisoindolin-4-yl)acetamide], in that order: more than 5 µM and more than 5 µM. For `CC(C)c1cc(-c2nnc(O)n2-c2ccc(CN3CCN(C(=O)CCCC(=O)Nc4cccc5c4CN(C4CCC(=O)NC4=O)C5=O)CC3)cc2)c(O)cc1O` (stereo not shown) [SDC-TRAP-0041, 5-(4-(4-(3-(2,4-dihydroxy-5-isopropylphenyl)-5-hydroxy-4H-1,2,4-triazol-4-yl)benzyl)piperazin-1-yl)-N-(2-(2,6-dioxopiperidin-3-yl)-1-oxoisoindolin-4-yl)-5-oxopentanamide], in that order: more than 10 µM and more than 5 µM. Turning to `CC(C)c1cc(-c2nnc(O)n2-c2ccc3c(ccn3CCOC(=O)Nc3nc(=O)[nH]cc3F)c2)c(O)cc1O` [SDC-TRAP-0025, 2-(5-(3-(2,4-dihydroxy-5-isopropylphenyl)-5-hydroxy-4H-1,2,4-triazol-4-yl)-1H-indol-1-yl)ethyl (5-fluoro-2-oxo-1,2-dihydropyrimidin-4-yl) carbamate], the IC50 in series [1] (BT-474, SDC-TRAPs of the 52nd table) came out at 0.403 µM; in series [2], 0.395 µM.

`CC(C)c1cc(-c2nnc(O)n2-c2ccc3c(ccn3CCNC(=O)CCCCCNC(=O)CCCC[C@H]3SC[C@H]4NC(=O)N[C@H]43)c2)c(O)cc1O` [SDC-TRAP-0234, N-(2-(5-(3-(2,4-dihydroxy-5-isopropylphenyl)-5-hydroxy-4H-1,2,4-triazol-4-yl)-1H-indol-1-yl)ethyl)-6-(5-((3aR,4R,6aS)-2-oxohexahydro-1H-thieno[3,4-d]imidazol-4-yl)pentanamido)hexanamide]: in series [3], the “Mass Retention” value is 9.56% and the Papp at 5 h stood at 0.0123 ×10⁻⁶ cm/s.
